Assay [1] deals with T1, BSA (Bos taurus, UniProt P02769).
T1 construct: purchased Sigma Aldrich
The experiment in a line: ATR-FTIR Amide I deconvolution, secondary structure of BSA with peptide. Set-up: species or system bovine. Conditions: for Random Coil of BSA / β-Anti of BSA / β-Sheet of BSA / β-Turn of BSA / α-Helix of BSA: ATR-FTIR Amide I. The text has this:
The perturbation in protein structure conformation can be monitored by CD spectroscopy as well as the ATR-FTIR method. These secondary structure changes are confirmation of the interaction between the studied compound and the protein [64, 65, 66, 67]. The range of the wavenumber from 1700 to 1000 cm^−1 is the most varied region and with the richest information on protein spectra. The most characteristic bands are Amide I and Amide II, which originate from the C=O stretching vibration and C–N– stretching coupled with N–H bending, respectively. Amide I was detected for BSA at 1652 cm^−1 and GGF at 1637 cm^−1 (Figure 4). The differences in the position of these bands are connected with the variety in the secondary structure conformation, while Amide II consistently occurred at 1545 and 1546 cm^−1 on the BSA and GGF spectra, respectively (Figure 4). The much less intense peak of Amide III usually accrued by C–N– stretching and bending vibration was only noticed in the BSA spectrum at 1307 cm^−1 (Figure 4). The peaks detected at 1454 cm^−1 (BSA) and 1452 cm^−1 (GGF) appeared by CH3 group symmetric and asymmetric bending vibration (δs, δas). The absorption signal 1400 cm^−1 may be assigned to stretching vibration (ν) caused by the carboxylic group (COO^−). The studied peptides interact with BSA and GGF, which is manifested by a reduction in the intensity of the absorption peaks (Figure 4). With the increase in the ligand concentration in the protein solution, the intensity of the absorption peaks decreased (Figure 4). The Amide I and II in the BSA spectrum decreased above all after binding with L1 and slightly in the samples from L2 and L3. […] Moreover, after the complexation of the investigated peptides with GGF, an increase in the band 1060 cm^−1 was responsible for stretching vibration C–O absorption, which was manifested the most by L2 and L3 compounds.
The shape and intensity variation in the Amide I band is the confirmation of peptide L1, L2, and L3 interaction with the protein’s backbone. The hydrogen bonds in the protein structure are violated after the active molecules’ binding and influence the frequency of the C=O vibrations’ absorption. The frequency of stretching vibrations can be reduced after changes in hydrogen bonding in the protein, whereas the frequency of bending vibrations can be increased after ligand to protein complexation. The Byler and Susi procedure was used to analyse the secondary structure protein conformation. The quantity analysis of the secondary structure in the protein is mostly conducted based on Amide I deconvolution, and it is the most frequently analyzed vibration band, which is very vulnerable to the detection of changes in the structure. The fragment of each normalized spectrum with the Amide I peak was extracted and a second derivate was made. The self-deconvolution and curve fitting by the Gaussian/Lorenzian function allowed determination of the intensity and total area under the peaks, which corresponds with the contribution of the type of structure. The position of each band component may be assigned to a corresponding shape of the secondary structure: the α-helix (1660–1647 cm^−1), β-sheet (1640–1610 cm^−1), β-turn (1660–1680 cm^−1), β-antiparallel (1681–1695 cm^−1), and random coil (1650–1630 cm^−1) structures.
The infrared spectra were measured on Nicolet iS50 FTIR (Thermo Scientific, Waltham, MA, USA) spectrometer equipped with Attenuated Total Reflectance (ATR) accessory. The deuterated triglicyne sulphate (DTGS) detector and KBr beam splitter were applied. The spectral data were recorded within the range of 4000 to 600 cm^−1 with a resolution of 4 cm^−1 and 100 scans were averaged for each spectrum. The measurements were accomplished at room temperature. The concentration of blood plasma proteins BSA (Sigma Aldrich, USA), and GGF (Sigma Aldrich, USA) were 6.5 × 10^−4 moldm^−3. […]

The target in assay [2] is bovine serum albumin (BSA) (Bos taurus, UniProt P02769). The experiment in a line: Site-marker displacement (phenylbutazone, ibuprofen) on BSA, fluorescence. In kind it is binding. Set-up: purchased Sigma Aldrich. Conditions: 297 K, BSA 5.0 µM, marker 10.0 µM. How it is done: To check if L1–L3 bind to BSA at the two Sudlow drug sites (site 1 and 2 [34, 60]), displacement studies were conducted by using phenylbutazone (PHB) and ibuprofen (IBP) as site probes. […] The fluorescence emission spectra of BSA and site markers during the titration of L1–L3 were recorded. The experimental data were analyzed using Equation (3). Binding constants in the presence of site markers were calculated and compared with Kb without PHB or IBP.
Chain of bovine serum albumin (BSA) (P02769 25-607): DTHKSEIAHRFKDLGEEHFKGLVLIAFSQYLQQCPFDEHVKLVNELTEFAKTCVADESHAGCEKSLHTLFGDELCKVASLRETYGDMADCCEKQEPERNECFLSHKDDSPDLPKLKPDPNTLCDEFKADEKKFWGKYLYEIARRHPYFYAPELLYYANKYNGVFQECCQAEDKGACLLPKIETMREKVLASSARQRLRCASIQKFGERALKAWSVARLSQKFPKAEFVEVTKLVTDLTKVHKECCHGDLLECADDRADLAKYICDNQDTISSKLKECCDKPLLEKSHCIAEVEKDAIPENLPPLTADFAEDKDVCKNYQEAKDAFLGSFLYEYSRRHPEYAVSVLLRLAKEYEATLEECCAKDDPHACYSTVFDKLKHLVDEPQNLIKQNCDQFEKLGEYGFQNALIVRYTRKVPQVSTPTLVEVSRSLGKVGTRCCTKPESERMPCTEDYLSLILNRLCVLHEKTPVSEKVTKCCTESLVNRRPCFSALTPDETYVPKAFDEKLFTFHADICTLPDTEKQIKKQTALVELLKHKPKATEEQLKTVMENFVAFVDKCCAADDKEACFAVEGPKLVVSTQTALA
Concentrations of BSA and site markers were set at 5.0 × 10^−6 and 10.0 × 10^−6 moldm^−3, respectively.

T1 sequence (P02769 25-607): as above

Regarding “Lys-Dab-Dab-Gly-Orn-Pro-His-Lys-Arg-Lys-Dbt [L1]”, in assay [1] (BSA/peptide 1:0.5), the “Random Coil of BSA” value is 26.54%, the “β-Anti of BSA” value was 0.77%, the “β-Sheet of BSA” value amounted to 3.87% and the “β-Turn of BSA” value was determined as 7.47%. For the same substance, the “α-Helix of BSA” value in assay [1] (BSA/peptide 1:0.5, BSA 6.5 × 10^−4 M, room temperature) is 61.36%. Further, in assay [1] (BSA/peptide 1:1.0), the “Random Coil of BSA” value was 27.93%, the “α-Helix of BSA” value is recorded as 49.45%, the “β-Anti of BSA” value amounted to 0.49% and the “β-Sheet of BSA” value amounted to 8.28%. Besides, the “β-Turn of BSA” value in assay [1] (BSA/peptide 1:1.0) is 13.86%. Moreover, in assay [1] (BSA/peptide 1:1.5), the “Random Coil of BSA” value was found to be 27.61%, the “α-Helix of BSA” value is listed as 49.40%, the “β-Anti of BSA” value is on record as 0.31% and the “β-Sheet of BSA” value stood at 8.69%. In addition, the “β-Turn of BSA” value in assay [1] (BSA/peptide 1:1.5) is reported as 13.99%. Also, in assay [1] (ATR-FTIR, after peptide addition), the “differences in the secondary structure of BSA” value is recorded as 16%. Moreover, in assay [1] (ATR-FTIR, versus free BSA), the “decrease of β-antiparallel framework of albumin” value was “about 2%”, the “growth of β-sheet of albumin” value is recorded as 7.05%, the “growth of β-turn of albumin” value was determined as 7.34% and the “increase in the share of the random structure of albumin” value was determined as 2%. Moreover, the “reduction in the α-helix of albumin” value in assay [1] (ATR-FTIR, versus free BSA) is listed as “more than 14%”. For the same substance, the logKb in assay [2] (BSA + IBP (site II)) was 4.03 ± 0.15. Further, the logKb in assay [2] (BSA + PHB (site I)) is on record as 4.00 ± 0.12.

The record behind these values is PMC9918186, “Interaction of Positively Charged Oligopeptides with Blood Plasma Proteins” (International Journal of Molecular Sciences, 2023).
